Assay results as given in patent US10167299B2, “1-(3-aminopropyl) substituted cyclic amine compounds, preparation method therefor, and pharmaceutical compositions and uses thereof” (SHANGHAI INSTITUTE OF MATERIA MEDICA, CHINESE ACADEMY OF …, priority 2013, dated 2019).
Converted amounts (≈) assume the structure as drawn. Where two headings read alike, the source gives them in different places.

What was measured:
[1] = tested on: Salmonella typhimurium strain TA98; assay: Bacterial reverse mutation assay TA98 (-S9); type: cell-based; conditions: TA98, -S9, positive control 20 μg/dish
Method: (§1) The mutagenic effects of compounds 18 and 22 of the present invention on Salmonella typhimurium strains TA98 and TA100 in non-metabolic activation (-S9) condition were determined. Two strains, TA98 and TA100 were chosen in bacterial reverse mutation assay for compounds 18 and 22. 9 doses containing […], negative and positive controls were set in experiments. 3 dishes were used for each dose. The experiment was carried out under -S9 condition.

[2] = tested on: Salmonella typhimurium strain TA100; assay: Bacterial reverse mutation assay TA100 (-S9); type: cell-based; conditions: TA100, -S9, positive control 1300 μg/dish
Method: as §1

[3] = Cytotoxicity (CC50) in TZM-bl cells; type: cell-based; conditions: human
CCR5 = CCR5 (Homo sapiens (Human), UniProt P51681); assay: Calcium flux inhibition experiment; type: cell-based; conditions: for IC50: HEK293/CCR5-Gα16 cell line, calcium flux, read-out: CCR5 IC50; for calcium influx inhibition effect in words, versus positive control compounds: conclusion from Table 1
hERG = hERG (Homo sapiens (Human), UniProt Q12809)
Method: CHO-hERG cells which have been incubated overnight were added with sample buffer and incubated for 90 minutes at room temperature in darkness.
The sample buffer was removed and assay buffer was added.
The compound is added to the cell plate and incubated for 20 minutes in darkness.
Cell plate was placed into FDSS. The fluorescence signal was recorded every second for 10 seconds. Exciting buffer was added to the cells at the 10th second and the fluorescence signal was recorded every second for 180 seconds

CCR5 protein = assay: Thermal stability of protein test (CPM-assay); type: binding; conditions: for Tm (° C.): thermal stability of CCR5 protein with compound, CPM dye
From the text: Experimental theory: many cysteines are present in CCR5 protein sequence. Cysteines located in loop region form disulfide bonds to stabilize the tertiary structure of the protein. Some free cysteines in reduced state are located in the transmembrane region. Under excitation by incident light of 387 nm, the combination of free sulfhydryl and fluorescent dye CPM can emit excitation light of 436 nm. […] The free sulfhydryls originally located in the transmembrane region expose and combine with the fluorescent dye. And then the detector will detect changes in signal enhancement. Therefore, the thermal stability of membrane proteins can be determined according to the temperature (Tm) at the midpoint of changes in signal intensity.
Experimental steps: Upon preliminary purification, the obtained protein solution was transferred into a small concentration tube (100 kd, 500 ul) for concentration (1000 rcf, 12 min, 4° C.). After centrifugation, the concentration tube was taken out and flicked to prevent protein coagulation due to high local concentration. The final concentrated volume was about 50 μl. 117 μl of purified solution (volume is suitable to make the total volume up to 120 μl), 1 μl fluorescent dye cpm (in-house prepared) and 2 μl of concentrated protein solution (the amount of added protein is 3-5 μg according to the calculated concentration of the protein solution and the concentrated volume) were added to 2 ml Ependorf tube and incubated at room temperature for 20 min. And then the mixture was added to the cuvette (Qwan) and put in the testing equipment Cary, wherein the surface of the frosted glass faced out. The temperature was set in the range of 4-90° C. with 1° C. increase per minute and the program was run. Tm value can be obtained by processing the data and graph with a mapping software and can be used to compare the difference of protein thermal stability under different conditions.

HIV-1SF162 virus strain = assay: Inhibition activity on TZM-bl cells infected with HIV-1SF162; conditions: for EC50: Human immunodeficiency virus 1, TZM-bl; for therapeutic index (TI): TZM-bl cells infected with HIV-1SF162
[4] = TZM-bl cells (Table 3), read-out: CC50

Chain of CCR5 (P51681 whole entry): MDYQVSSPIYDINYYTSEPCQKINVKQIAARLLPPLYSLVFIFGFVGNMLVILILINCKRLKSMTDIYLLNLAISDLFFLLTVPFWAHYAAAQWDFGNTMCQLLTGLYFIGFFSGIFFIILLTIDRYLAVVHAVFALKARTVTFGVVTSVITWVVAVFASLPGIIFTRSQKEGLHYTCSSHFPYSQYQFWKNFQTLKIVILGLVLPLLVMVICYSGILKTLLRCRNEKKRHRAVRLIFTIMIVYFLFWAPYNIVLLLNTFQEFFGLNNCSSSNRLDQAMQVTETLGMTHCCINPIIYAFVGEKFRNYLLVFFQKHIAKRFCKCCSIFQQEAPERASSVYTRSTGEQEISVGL
Chain of hERG (Q12809 whole entry): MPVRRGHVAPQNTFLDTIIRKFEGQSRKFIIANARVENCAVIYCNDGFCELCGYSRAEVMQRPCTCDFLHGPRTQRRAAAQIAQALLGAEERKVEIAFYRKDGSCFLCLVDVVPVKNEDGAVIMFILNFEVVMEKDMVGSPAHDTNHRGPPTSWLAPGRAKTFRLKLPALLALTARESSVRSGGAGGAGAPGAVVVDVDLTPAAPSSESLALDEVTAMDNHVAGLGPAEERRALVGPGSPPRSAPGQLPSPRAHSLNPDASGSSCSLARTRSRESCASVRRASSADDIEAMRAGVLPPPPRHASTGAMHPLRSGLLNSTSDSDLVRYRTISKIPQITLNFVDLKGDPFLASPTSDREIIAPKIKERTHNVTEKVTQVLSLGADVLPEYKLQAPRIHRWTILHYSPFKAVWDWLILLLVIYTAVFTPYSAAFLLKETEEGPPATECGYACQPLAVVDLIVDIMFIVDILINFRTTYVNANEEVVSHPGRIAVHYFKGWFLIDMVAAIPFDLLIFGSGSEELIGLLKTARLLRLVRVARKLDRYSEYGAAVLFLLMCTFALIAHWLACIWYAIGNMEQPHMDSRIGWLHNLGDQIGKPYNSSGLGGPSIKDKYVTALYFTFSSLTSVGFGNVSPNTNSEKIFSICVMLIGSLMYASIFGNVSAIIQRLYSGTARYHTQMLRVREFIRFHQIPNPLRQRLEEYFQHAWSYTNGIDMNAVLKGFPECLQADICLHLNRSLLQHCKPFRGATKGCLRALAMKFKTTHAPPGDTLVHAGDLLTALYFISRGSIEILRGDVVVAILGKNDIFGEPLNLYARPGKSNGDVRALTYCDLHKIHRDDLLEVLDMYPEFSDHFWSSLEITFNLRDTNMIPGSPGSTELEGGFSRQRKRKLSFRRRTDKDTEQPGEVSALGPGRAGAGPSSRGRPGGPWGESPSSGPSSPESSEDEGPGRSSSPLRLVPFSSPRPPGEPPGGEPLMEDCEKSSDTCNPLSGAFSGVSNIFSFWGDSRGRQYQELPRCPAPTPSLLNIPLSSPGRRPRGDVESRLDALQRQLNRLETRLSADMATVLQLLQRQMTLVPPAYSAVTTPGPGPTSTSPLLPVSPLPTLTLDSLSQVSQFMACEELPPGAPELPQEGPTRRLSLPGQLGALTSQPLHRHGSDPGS

Structure (SMILES) | IC50 (CCR5) | Tm (° C.) (CCR5 protein) | EC50 (HIV-1SF162 virus strain) | therapeutic index (TI) (HIV-1SF162 virus strain) | CC50 [3, 4] | also measured
O=[N+]([O-])c1ccc2c(c1)Cc1ccccc1-2 [2-Nitroflucrene, reference compound] |  |  |  |  |  | number of revertant colonies (Mean ± SD) [1]: 999 ± 145.2
COS(C)(=O)=O [Methyl methanesulfonate, reference compound] |  |  |  |  |  | number of revertant colonies (Mean ± SD) [2]: 1231 ± 146.1
Cc1nnc(C(C)C)n1C1CC2CCC(C1)N2CC[C@H](NC(=O)C1CCCCC1)c1cccnc1 (stereo partly drawn) [Compound 8, N-[(1S)-3-[exo-3-(3-isopropyl-5-methyl-4H-1,2,4-triazol-4-yl)-8-azabicyclo[3.2.1]octane-8-yl]-1-(pyridin-3-yl)propyl]cyclohexane-1-carboxamide] | 0.0219 µM | 60.61 °C | 2.69 mg/L (≈ 5.62 µM) | >37.17 |  | CC50 [3]: > 100 mg/L; hERG inhibition activity in words, versus positive control compounds (hERG): better that those of positive control compounds
Cc1sc([C@H](CCN2C3CCC2CC(n2c(C)nnc2C(C)C)C3)NC(=O)C2CCC(F)(F)CC2)c(C)c1C (stereo partly drawn) [Compound 103, 4,4-difluoro-N-[(1S)-3-[exo-3-(3-isopropyl-5-methyl-4H-1,2,4-triazol-4-yl)-8-azabicyclo[3.2.1]octane-8-yl]-1-(3,4,5-trimethylthiophen-2-yl)propyl]cyclohexane-1-carboxamide] |  |  |  |  |  | IC50 (hERG): 3.47 µM
Cc1nnc(C(C)C)n1C1CCN(CC[C@H](NC(=O)C2CCCCC2)c2cccs2)CC1 [Compound 15, N-[(1S)-3-[4-(3-isopropyl-5-methyl-4H-1,2,4-triazol-4-yl)-piperidin-1-yl]-1-(thiophen-2-yl)propyl]cyclohexane-1-carboxamide] | 0.00922 µM | 64.30 °C | 0.316 mg/L (≈ 0.69 µM) | >632.87 | > 200 mg/L | calcium influx inhibition effect in words, versus positive control compounds (CCR5): comparable to the positive control compounds
Cc1nnc(C(C)C)n1C1CC2CCC(C1)N2CC[C@H](NC(=O)C1CCCC1)c1ccsc1 (stereo partly drawn) [Compound 26, N-[(1S)-3-[exo-3(3-isopropyl-5-methyl-4H-1,2,4-triazol-4-yl)-8-azabicyclo[3.2.1]octane-8-yl]-1-(thiophen-3-yl)propyl]cyclopentane-1-carboxamide] | 0.00506 µM | 71.02 °C | 0.00558 mg/L (≈ 0.0119 µM) | >35842.29 |  | CC50 [3]: > 200 mg/L; calcium influx inhibition effect in words, versus positive control compounds (CCR5): better than the positive control compounds; protein stability effect in words, versus positive control compound (CCR5 protein; conclusion from Table 2): comparable with the positive control compound; cytotoxicity in vitro and therapeutic index in words, versus positive control compound (HIV-1SF162 virus strain; TZM-bl cells infected with HIV-1SF162, conclusion from Table 3): better than positive control compound
Cc1nnc(C(C)C)n1C1CCN(CC[C@H](NC(=O)C2CCCCC2)c2cccnc2)CC1 [Compound 7, N-[(1S)-3-[4-(3-isopropyl-5-methyl-4H-1,2,4-triazol-4-yl)-piperidin-1-yl]-1-(pyridin-3-yl)propyl]cyclohexane-1-carboxamide] | 0.0352 µM | 57.21 °C | 2.34 mg/L (≈ 5.17 µM) | 50.31 | > 100 mg/L | 
CC(=O)N[C@@H](CCN1C2CCC1CC(n1c(C)nnc1C(C)C)C2)c1cccs1 (stereo partly drawn) [Compound 12, N-[(1S)-3-[exo-3-(3-isopropyl-5-methyl-4H-1,2,4-triazol-4-yl)-8-azabicyclo[3.2.1]octane-8-yl]-1-(thiophen-2-yl)propyl]acetamide] |  |  |  |  |  | hERG inhibition activity in words, versus positive control compounds (hERG): better that those of positive control compounds
Cc1nnc(C(C)C)n1C1CCN(CC[C@H](NC(=O)C2CCCCC2)c2ccsc2)CC1 [Compound 23, N-[(1S)-3-[4-(3-isopropyl-5-methyl-4H-1,2,4-triazol-4-yl)-piperidin-1-yl]-1-(thiophen-3-yl)propyl]cyclohexane-1-carboxamide] | 0.0273 µM | 63.90 °C | 0.06 mg/L (≈ 0.131 µM) | >3332.78 | > 200 mg/L | 
Cc1nnc(C(C)C)n1C1CCN(CC[C@H](NC(=O)C2CCCC2)c2ccsc2)CC1 [Compound 25, N-[(1S)-3-[4-(3-isopropyl-5-methyl-4H-1,2,4-triazol-4-yl)-piperidin-1-yl]-1-(thiophen-3-yl)propyl]cyclopentane-1-carboxamide] | 0.0379 µM | 62.31 °C | 0.168 mg/L (≈ 0.379 µM) | >1190.41 | > 200 mg/L | 
